Test results reported in publication PMC11207335, “In Vitro Metabolism and Transport Characteristics of Zastaprazan” (Pharmaceutics, 2024).
Read-outs that look alike come from different tables or passages of the source.

Tests used:
CYP3A4 [1] = tested on: CYP3A4; parameters: method as in PMID 34072547; conditions: cited from earlier work
erosive esophagitis = tested on: erosive esophagitis; parameters: method as in PMID 36504556; conditions: 8-week treatment, patients with erosive esophagitis; cited from earlier work
[2] = parameters: method as in PMID 29863280, doi:10.1007/s11938-020-00330-x; conditions: no signs of hepatotoxicity; cited from earlier work
[3] = Apparent permeability in Caco-2 cells; format: in vitro ADME; conditions: human
Method: Caco-2 cells (passage no. 41–42) were grown in tissue culture flasks containing Dulbecco’s Modified Eagle Medium supplemented with 20% FBS, 1% nonessential amino acids, and 1% penicillin–streptomycin. […] The culture medium was replaced every other day. On the day of the experiment, the growth medium was discarded, and the attached cells were washed with prewarmed HBSS (pH 7.4) and preincubated with HBSS for 20 min at 37 °C. […] Aliquots (30 μL) of each sample were vortex-mixed with 90 μL of IS solution for 1 min, and then centrifugation was performed at 13,500 rpm at 4 °C for 5 min. Aliquots (5 μL) of the supernatant were injected into the LC-MS/MS for analysis.

[4] = cited from earlier work
gastric pH [5] = conditions: cited from earlier work; for % time pH > 4.0 over a period of 24 h: 40 mg dose group, healthy subjects
esterase = conditions: 5 μM JP-1366, human liver microsomes
Method: The experimental protocols were performed in accordance with FDA guidelines and the previous reports with slight modifications. […] The reactions were stopped by adding 100 μL of lansoprazole (IS) in ice-cold acetonitrile (100 ng/mL).

[6] = parameters: method as in PMID 16011666; conditions: cited from earlier work
porcine H^+/K^+-ATPase = target: porcine H^+/K^+-ATPase; parameters: method as in PMID 35745870, PMID 33355910; conditions: reversible inhibition; cited from earlier work
gastric pH [7] = tested on: gastric pH; parameters: method as in PMID 31437865; conditions: cited from earlier work
gastric pH [8] = tested on: gastric pH; parameters: method as in PMID 35146797; conditions: 50 mg of tegoprazan dose; cited from earlier work
CYP3A4 [9] = tested on: CYP3A4; parameters: method as in PMID 35745870; conditions: cited from earlier work
[10] = tested on: human, dog, monkey, mouse, and rat hepatocytes; experiment: In vitro metabolic profiling of JP-1366 in hepatocytes; format: in vitro ADME; conditions: 10 µM JP-1366, 60 min; H human, D dog, Mk monkey, M mouse, R rat
Method: Cryopreserved human, dog, monkey, mouse, and rat hepatocytes were purified and recovered according to the manufacturer’s protocol. […] The metabolic reaction in each sample well was quenched by adding 120 μL of ice-cold acetonitrile.
MS spectra were obtained in positive-ion mode using electrospray ionization under optimized conditions as follows: capillary temperature, 350 °C; sheath gas flow rate, 40 (arbitrary units); aux gas flow rate, 10 (arbitrary units); and aux gas heater temperature, 350 °C. Full MS scan with data-dependent MS/MS was performed from m/z 100 to m/z 1000.

[11] = tested on: human liver microsomes (HLM); experiment: Enzyme kinetics of JP-1366 metabolism in human liver microsomes; format: in vitro ADME; conditions: for Vmax: formation of the labelled metabolite from JP-1366, HLM
Method: (§1) The reaction was initiated by adding 5 μL of NADPH-generating system in triplicate, and the mixture was further incubated for 30 min at 37 °C in a shaking water bath.
(§2) The concentrations of the metabolites were quantitated, and their formation rates (pmol/mg protein/min) were calculated by dividing the amounts of metabolites formed from the incubation with human liver microsomes and human cDNA-expressed CYP or UGT enzymes by the incubation time.

human liver microsomes = experiment: JP-1366 metabolism in human liver microsomes with NADPH, with or without SKF-525A; format: in vitro ADME
[12] = tested on: human liver microsomes (HLM); experiment: Enzyme kinetics of M1 glucuronidation to M15 in human liver microsomes; format: in vitro ADME; conditions: formation of M15 from M1, HLM
Method: (§3) By adding 5 μL of UDPGA (final concentration, 5 mM), the reaction was initiated, and the mixture was further incubated for 30 min at 37 °C in a shaking water bath. The reaction was terminated by adding 100 μL of ice-cold acetonitrile containing 5 ng/mL of lansoprazole (IS).
as §2

[13] = target: T1, human cDNA-expressed UGT2B7 (Homo sapiens, UniProt P16662); experiment: Enzyme kinetics of M1 glucuronidation to M15 in cDNA-expressed UGT2B7; format: in vitro ADME; conditions: formation of M15 from M1, UGT2B7
T1 construct: purchased Corning Life Sciences
Method: as §3, §2

[14] = target: T2, human cDNA-expressed UGT2B17 (Homo sapiens, UniProt O75795); experiment: Enzyme kinetics of M1 glucuronidation to M15 in cDNA-expressed UGT2B17; format: in vitro ADME; conditions: formation of M15 from M1, UGT2B17
T2 construct: purchased Corning Life Sciences
Method: as §3, §2

[15] = target: T3, human cDNA-expressed CYP2C9 (Homo sapiens, UniProt P11712); experiment: Enzyme kinetics of JP-1366 metabolism in cDNA-expressed CYP2C9; format: in vitro ADME
T3 construct: purchased Corning Life Sciences
Method: as §1, §2

[16] = target: T4, human cDNA-expressed CYP2C19 (Homo sapiens, UniProt P33261); experiment: Enzyme kinetics of JP-1366 metabolism in cDNA-expressed CYP2C19; format: in vitro ADME
T4 construct: purchased Corning Life Sciences
Method: as §1, §2

[17] = target: T5, human cDNA-expressed CYP2D6 (Homo sapiens, UniProt P10635); experiment: Enzyme kinetics of JP-1366 metabolism in cDNA-expressed CYP2D6; format: in vitro ADME
T5 construct: purchased Corning Life Sciences
Method: as §1, §2

[18] = target: T6, human cDNA-expressed CYP3A4 (Homo sapiens, UniProt P08684); experiment: Enzyme kinetics of JP-1366 metabolism in cDNA-expressed CYP3A4; format: in vitro ADME
T6 construct: purchased Corning Life Sciences
Method: as §1, §2

[19] = target: T7, human cDNA-expressed CYP3A5 (Homo sapiens, UniProt P20815); experiment: Enzyme kinetics of JP-1366 metabolism in cDNA-expressed CYP3A5; format: in vitro ADME
T7 construct: purchased Corning Life Sciences
Method: as §1, §2

CYP3A4/5 = experiment: Combined contribution of CYP3A4/5 to formation of major JP-1366 metabolites; format: in vitro ADME, human; conditions: sum of CYP3A4 and CYP3A5 contributions
Method: as §1, §2

[20] = formation of the labelled metabolite from JP-1366, CYP2C9
[21] = formation of the labelled metabolite from JP-1366, CYP2C19
[22] = formation of the labelled metabolite from JP-1366, CYP2D6
[23] = formation of the labelled metabolite from JP-1366, CYP3A4
[24] = formation of the labelled metabolite from JP-1366, CYP3A5

T7 sequence (P20815 whole entry): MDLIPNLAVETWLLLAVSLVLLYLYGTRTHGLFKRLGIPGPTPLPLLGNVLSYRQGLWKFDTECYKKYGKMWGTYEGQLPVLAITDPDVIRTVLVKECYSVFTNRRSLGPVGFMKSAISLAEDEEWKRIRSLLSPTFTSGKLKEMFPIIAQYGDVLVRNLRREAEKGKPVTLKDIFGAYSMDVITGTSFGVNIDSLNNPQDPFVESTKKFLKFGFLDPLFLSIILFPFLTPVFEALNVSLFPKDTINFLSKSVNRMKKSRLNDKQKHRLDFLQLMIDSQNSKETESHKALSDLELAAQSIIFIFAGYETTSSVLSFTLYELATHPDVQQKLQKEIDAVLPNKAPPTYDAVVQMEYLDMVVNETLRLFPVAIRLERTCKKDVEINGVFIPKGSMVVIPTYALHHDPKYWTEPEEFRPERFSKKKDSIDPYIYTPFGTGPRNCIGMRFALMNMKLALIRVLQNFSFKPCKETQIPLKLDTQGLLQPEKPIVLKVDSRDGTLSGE
T5 sequence (P10635 whole entry): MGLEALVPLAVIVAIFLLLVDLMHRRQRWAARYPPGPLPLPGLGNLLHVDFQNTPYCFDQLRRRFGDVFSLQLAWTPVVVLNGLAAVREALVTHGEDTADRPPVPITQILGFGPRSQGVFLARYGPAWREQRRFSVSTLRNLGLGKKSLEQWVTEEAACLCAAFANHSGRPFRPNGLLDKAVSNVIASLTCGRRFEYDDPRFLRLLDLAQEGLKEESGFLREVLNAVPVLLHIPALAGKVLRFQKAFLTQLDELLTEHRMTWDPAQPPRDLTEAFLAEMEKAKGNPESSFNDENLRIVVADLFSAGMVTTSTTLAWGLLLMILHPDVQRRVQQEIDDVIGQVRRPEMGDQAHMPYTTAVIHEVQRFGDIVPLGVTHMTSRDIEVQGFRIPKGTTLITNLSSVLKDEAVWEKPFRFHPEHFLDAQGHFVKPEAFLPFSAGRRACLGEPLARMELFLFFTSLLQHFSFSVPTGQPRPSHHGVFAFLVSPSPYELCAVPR
T4 sequence (P33261 whole entry): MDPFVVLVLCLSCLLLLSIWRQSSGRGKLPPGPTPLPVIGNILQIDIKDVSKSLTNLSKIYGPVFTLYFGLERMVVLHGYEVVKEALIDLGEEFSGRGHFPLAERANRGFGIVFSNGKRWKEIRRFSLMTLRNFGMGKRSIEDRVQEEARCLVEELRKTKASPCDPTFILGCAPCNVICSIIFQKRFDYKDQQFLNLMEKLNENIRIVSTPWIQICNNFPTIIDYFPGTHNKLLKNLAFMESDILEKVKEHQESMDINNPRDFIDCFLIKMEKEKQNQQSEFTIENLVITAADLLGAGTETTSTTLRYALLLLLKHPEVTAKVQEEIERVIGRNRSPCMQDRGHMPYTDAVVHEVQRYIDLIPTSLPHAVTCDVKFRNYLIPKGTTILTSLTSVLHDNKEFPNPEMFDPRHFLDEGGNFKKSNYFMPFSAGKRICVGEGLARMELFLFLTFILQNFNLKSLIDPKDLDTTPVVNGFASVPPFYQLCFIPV
T6 sequence (P08684 whole entry): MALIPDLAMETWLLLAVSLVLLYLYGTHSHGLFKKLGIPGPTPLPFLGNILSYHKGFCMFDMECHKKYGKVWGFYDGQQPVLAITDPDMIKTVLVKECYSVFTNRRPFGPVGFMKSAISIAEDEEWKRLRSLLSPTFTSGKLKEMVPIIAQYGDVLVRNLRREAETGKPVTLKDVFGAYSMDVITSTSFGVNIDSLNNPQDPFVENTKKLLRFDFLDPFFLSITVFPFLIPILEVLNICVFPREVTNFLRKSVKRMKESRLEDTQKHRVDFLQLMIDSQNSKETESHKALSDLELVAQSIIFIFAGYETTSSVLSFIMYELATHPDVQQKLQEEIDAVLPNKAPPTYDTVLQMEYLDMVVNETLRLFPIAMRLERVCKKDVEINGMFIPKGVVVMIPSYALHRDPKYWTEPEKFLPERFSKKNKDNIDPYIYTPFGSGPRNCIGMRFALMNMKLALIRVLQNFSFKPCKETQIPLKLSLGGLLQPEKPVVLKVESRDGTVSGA
T3 sequence (P11712 whole entry): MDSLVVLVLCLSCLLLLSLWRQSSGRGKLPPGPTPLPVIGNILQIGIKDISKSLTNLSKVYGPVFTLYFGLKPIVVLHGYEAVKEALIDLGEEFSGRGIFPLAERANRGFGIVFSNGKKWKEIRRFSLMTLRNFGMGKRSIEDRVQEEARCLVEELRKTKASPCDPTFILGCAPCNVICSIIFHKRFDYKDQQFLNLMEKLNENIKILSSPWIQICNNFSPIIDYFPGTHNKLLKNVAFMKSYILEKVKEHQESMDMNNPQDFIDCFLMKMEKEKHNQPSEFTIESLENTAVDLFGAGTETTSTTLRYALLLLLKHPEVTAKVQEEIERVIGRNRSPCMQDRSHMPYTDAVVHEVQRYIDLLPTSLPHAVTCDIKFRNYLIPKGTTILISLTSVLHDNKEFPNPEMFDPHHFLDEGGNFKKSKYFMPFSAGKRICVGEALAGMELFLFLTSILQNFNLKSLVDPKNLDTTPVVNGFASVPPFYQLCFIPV
T2 sequence (O75795 24-530): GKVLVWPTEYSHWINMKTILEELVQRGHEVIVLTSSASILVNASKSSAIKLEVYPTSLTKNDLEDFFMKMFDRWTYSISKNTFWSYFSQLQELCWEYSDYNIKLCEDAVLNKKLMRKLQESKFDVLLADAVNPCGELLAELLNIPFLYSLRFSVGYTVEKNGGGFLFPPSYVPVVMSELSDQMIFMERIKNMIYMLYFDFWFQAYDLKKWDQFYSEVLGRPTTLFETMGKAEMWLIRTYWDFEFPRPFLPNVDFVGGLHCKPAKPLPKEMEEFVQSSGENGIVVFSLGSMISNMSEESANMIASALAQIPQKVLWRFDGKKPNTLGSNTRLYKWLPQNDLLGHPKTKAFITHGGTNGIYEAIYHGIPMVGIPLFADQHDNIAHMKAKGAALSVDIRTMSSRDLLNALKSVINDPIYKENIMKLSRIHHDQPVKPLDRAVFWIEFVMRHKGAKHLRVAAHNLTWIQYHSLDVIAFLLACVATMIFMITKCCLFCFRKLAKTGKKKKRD
T1 sequence (P16662 24-529): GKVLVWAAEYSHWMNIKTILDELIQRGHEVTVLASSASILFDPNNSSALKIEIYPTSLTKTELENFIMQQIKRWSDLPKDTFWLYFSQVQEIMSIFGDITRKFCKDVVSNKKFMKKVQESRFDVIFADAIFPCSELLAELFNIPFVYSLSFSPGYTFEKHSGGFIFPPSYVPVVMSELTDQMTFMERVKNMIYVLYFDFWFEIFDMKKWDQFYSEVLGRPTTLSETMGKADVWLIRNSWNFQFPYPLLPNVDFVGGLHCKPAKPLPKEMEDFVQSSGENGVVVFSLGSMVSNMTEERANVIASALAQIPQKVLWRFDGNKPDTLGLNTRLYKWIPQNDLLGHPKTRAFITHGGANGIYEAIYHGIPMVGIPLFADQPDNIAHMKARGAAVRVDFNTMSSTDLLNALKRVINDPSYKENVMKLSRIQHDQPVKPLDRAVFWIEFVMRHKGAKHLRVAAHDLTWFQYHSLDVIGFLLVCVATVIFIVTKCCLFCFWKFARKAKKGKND

CNCc1cn(S(=O)(=O)c2cccc(F)c2)c(-c2ccc(F)cc2F)c1OC [Fexuprazan]
contribution of CYP3A4 to formation of M11 (hydroxylation) (CYP3A4 [1]): > 60% | contribution of CYP3A4 to formation of M14 (oxidative deamination) (CYP3A4 [1]): more than 80% | erosive esophagitis healing versus esomeprazole 40 mg (erosive esophagitis): non-inferior | tolerability [2]: well tolerated

CC(C)NCC(O)COc1cccc2ccccc12 (centres unmarked) [Propranolol, reference compound]
Papp A→B at 1 h, 4 µM ([3]; Caco-2, pH 7.4): 97.5 ± 6.8 nm/s | Papp B→A at 1 h, 4 µM ([3]; Caco-2, pH 7.4): 122 ± 15.1 nm/s | efflux ratio at 1 h, 4 µM ([3]; pH 7.4, Caco-2, mean Papp,BA / mean Papp,AB, read-out: ER): 1.3

CNCc1cc(-c2ccccc2F)n(S(=O)(=O)c2cccnc2)c1 [Vonoprazan]
pKa [4]: 9.37

COc1ccc2nc([S@@+]([O-])Cc3ncc(C)c(OC)c3C)[nH]c2c1 [esomeprazole, reference compound]
% time pH > 4.0 over a period of 24 h (gastric pH [5]; MAD): 56.56% ± 22.47% | % time pH > 4.0 over a period of 24 h (gastric pH [5]; SAD): 72.06% ± 13.43% | % time pH > 4 at nighttime (gastric pH [5]; repeated 40 mg dose): 56.56% ± 22.47%

[F-].[Na+] [NaF]
inhibition of formation of M23 from JP-1366 (esterase; 100 μM NaF): 18.9% ± 3.9% | inhibition of formation of M23 from JP-1366 (esterase; 1000 μM NaF): 73.3% ± 0.3%

COc1ccc2[nH]c([S+]([O-])Cc3ncc(C)c(OC)c3C)nc2c1 (centres unmarked) [omeprazole]
plasma exposure in poor metabolizers with a CYP2C19 mutation [6]: five-fold higher

Cc1nc2cc(C(=O)N(C)C)cc(O[C@H]3CCOc4cc(F)cc(F)c43)c2[nH]1 [tegoprazan]
IC50 (porcine H^+/K^+-ATPase): 0.53 µM | Cmax (gastric pH [7]; 100 mg once daily, day 1): 1.413 ± 0.0247 µg/mL | Cmax (gastric pH [7]; 100 mg once daily, day 7): 0.8452 ± 0.0407 µg/mL | decrease of Cmax after repeated administration compared with a single dose (gastric pH [7]; 100 mg once daily): 40% | % time pH > 4 over a 24 h period (gastric pH [7]; repeated oral dose of 100 mg): 70.4% | % time pH > 4 over a 24 h period (gastric pH [7]; single oral dose of 50 mg, six healthy subjects): 48.9% | % time pH > 4 over a 24 h period (gastric pH [8]): 66.0 ± 15.7% | contribution of CYP3A4 to metabolism to active metabolite M1 (CYP3A4 [9]): about 75%

Cc1cccc(C)c1CNc1cc(C(=O)O)cn2c(C)c(C)nc12 [M23, 8-((2,6-dimethylbenzyl)amino)-2,3-dimethylimidazo[1,2-a]pyridine-6-carboxylic acid]
Hepatocytes (species in which the metabolite was found) [10]: H, D, M, R | Vmax [11]: 23.2 pmol/min/mg protein

Cc1cccc(COC2OC(C(=O)O)C(O)C(O)C2O)c1CNc1cc(C(=O)N2CCC2)cn2c(C)c(C)nc12 (centres unmarked) [M15]
Hepatocytes (species in which the metabolite was found) [10]: H, D, Mk, M, R | detection of metabolite after incubation of JP-1366 in human liver microsomes with NADPH (human liver microsomes; 5 μM JP-1366): not detected | CLint [12]: 1.29 μL/min/mg Protein | Vmax [12]: 74.9 pmol/min/mg Protein | n (Hill coefficient) [12]: 1.0 | CLint [13]: 0.60 μL/min/mg Protein | n (Hill coefficient) [13]: 0.8 | CLint [14]: 1.27 μL/min/mg Protein | Ki ([14]; substrate inhibition): 59 µM

CCCC(C(=O)OCCN(CC)CC)(c1ccccc1)c1ccccc1 [SKF-525A, reference compound]
effect on formation of M23 from JP-1366 (human liver microsomes; SKF-525A 10 μM and 100 μM, human liver microsomes): not inhibited

Cc1nc2c(N)cc(C(=O)N3CCC3)cn2c1C [M6, (8-amino-2,3-dimethylimidazo[1,2-a]pyridin-6-yl)(azetidin-1-yl)methanone]
Hepatocytes (species in which the metabolite was found) [10]: H, D, Mk, M, R | CLint [15, 20]: 0.0070 μL/min/pmol CYP | n (Hill coefficient) [15, 20]: 0.7 | Contribution (%) ([15]; relative contribution of CYP2C9 to formation of the labelled metabolite): 2.8% | CLint [16, 21]: 0.0023 μL/min/pmol CYP | n (Hill coefficient) [16, 21]: 0.6 | Contribution (%) ([16]; relative contribution of CYP2C19 to formation of the labelled metabolite): 0.1% | CLint [17, 22]: 0.0015 μL/min/pmol CYP | n (Hill coefficient) [17, 22]: 0.7 | Contribution (%) ([17]; relative contribution of CYP2D6 to formation of the labelled metabolite): 0.1% | CLint [18, 23]: 0.77 μL/min/pmol CYP | n (Hill coefficient) [18, 23]: 1.8 | Contribution (%) ([18]; relative contribution of CYP3A4 to formation of the labelled metabolite): 28.1% | CLint [19, 24]: 0.41 μL/min/pmol CYP | n (Hill coefficient) [19, 24]: 1.5 | Contribution (%) ([19]; relative contribution of CYP3A5 to formation of the labelled metabolite): 68.9% | Vmax [11]: 798.8 pmol/min/mg protein | Ki ([11]; substrate inhibition kinetics, formation of the labelled metabolite, HLM): 105 µM | contribution of CYP3A4/5 to formation of the metabolite from JP-1366 (CYP3A4/5): 97.0%
